{
  "source": "ChEMBL document CHEMBL1201862",
  "about": "“PubChem BioAssay data set” (2004)",
  "key": {"[1]": {"target": "Eukaryotic translation initiation factor 4H (Homo sapiens, UniProt Q15056)", "test": "human eIF4H binding inhibitors, primary screen, translation initiation inhibitor project, biochemical, uHTS, fluorescence polarization (AID 2012)"}, "[2]": {"target": "Polyadenylate-binding protein 1 (Homo sapiens, UniProt P11940)", "sequence (P11940 whole entry)": "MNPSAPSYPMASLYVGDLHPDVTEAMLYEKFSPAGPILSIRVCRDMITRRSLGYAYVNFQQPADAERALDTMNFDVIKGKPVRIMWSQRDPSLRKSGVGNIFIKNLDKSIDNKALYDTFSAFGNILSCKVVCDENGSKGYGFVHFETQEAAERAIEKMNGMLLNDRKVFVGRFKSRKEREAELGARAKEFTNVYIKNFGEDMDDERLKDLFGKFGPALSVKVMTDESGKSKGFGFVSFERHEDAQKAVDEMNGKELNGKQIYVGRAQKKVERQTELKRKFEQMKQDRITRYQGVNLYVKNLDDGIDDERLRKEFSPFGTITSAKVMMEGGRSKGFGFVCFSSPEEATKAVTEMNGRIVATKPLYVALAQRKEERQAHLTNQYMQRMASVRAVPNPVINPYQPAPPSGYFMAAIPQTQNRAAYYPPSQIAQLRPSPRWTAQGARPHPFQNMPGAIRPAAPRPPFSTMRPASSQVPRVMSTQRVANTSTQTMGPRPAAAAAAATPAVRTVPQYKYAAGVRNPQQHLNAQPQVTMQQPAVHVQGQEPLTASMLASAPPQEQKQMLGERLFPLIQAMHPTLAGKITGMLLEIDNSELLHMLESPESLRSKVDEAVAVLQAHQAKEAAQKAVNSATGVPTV", "test": "PABP poly(A) RNA binding inhibitors, primary screen, biochemical, fluorescence polarization, uHTS (AID 2014)"}, "[3]": {"target": "T1, Mannose-6-phosphate isomerase (Homo sapiens, UniProt P34949)", "T1 sequence (P34949 whole entry)": "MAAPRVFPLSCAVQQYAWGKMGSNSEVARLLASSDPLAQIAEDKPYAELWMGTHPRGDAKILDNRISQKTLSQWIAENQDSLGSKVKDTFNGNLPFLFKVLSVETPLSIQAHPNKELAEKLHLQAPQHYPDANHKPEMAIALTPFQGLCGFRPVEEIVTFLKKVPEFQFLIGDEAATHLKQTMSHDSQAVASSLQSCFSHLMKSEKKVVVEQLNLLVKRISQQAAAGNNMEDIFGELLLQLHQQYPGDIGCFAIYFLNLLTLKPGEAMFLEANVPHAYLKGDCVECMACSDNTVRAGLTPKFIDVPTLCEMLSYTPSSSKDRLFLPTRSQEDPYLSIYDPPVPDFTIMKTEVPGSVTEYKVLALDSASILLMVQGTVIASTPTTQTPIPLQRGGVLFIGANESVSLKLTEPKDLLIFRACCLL", "test": "human PMI inhibitors, high substrate, primary screen, biochemical, fluorescence intensity, high mannose 6-phosphate (AID 1220)"}, "[4]": {"target": "Cytochrome P450 2C9 (Homo sapiens, UniProt P11712)", "sequence (P11712 whole entry)": "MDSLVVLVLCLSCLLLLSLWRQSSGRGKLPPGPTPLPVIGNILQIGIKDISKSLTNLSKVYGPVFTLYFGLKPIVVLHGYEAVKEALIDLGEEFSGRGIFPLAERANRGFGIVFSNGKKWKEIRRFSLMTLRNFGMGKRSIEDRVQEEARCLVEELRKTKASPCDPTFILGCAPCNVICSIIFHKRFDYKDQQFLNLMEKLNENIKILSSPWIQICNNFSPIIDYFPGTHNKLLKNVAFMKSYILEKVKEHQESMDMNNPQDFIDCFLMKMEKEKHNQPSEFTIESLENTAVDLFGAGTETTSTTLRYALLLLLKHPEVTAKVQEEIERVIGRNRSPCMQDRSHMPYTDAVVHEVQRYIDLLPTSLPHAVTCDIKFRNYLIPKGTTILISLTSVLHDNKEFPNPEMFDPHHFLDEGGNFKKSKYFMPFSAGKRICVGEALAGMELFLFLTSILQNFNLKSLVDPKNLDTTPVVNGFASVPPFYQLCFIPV", "conditions": "Potency"}, "[5]": {"target": "T2, Neuropeptide Y receptor type 1 (Homo sapiens, UniProt P25929)", "T2 sequence (P25929 whole entry)": "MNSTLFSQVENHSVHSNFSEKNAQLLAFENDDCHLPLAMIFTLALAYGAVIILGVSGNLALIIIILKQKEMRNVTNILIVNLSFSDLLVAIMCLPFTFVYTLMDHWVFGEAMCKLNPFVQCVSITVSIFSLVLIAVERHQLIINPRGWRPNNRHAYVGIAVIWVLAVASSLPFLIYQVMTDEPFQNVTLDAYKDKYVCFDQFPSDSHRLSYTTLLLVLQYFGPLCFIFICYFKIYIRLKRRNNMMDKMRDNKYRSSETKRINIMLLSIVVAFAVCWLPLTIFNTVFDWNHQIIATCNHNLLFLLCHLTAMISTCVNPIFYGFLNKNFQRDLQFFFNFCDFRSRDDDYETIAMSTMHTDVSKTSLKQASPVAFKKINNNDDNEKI", "test": "NPY-Y1 receptor antagonist potency, dose response, cell-based (AID 1277)", "assay_type": "functional"}, "[6]": {"target": "Melanin-concentrating hormone receptor 1 (Homo sapiens, UniProt Q99705)", "sequence (Q99705 whole entry)": "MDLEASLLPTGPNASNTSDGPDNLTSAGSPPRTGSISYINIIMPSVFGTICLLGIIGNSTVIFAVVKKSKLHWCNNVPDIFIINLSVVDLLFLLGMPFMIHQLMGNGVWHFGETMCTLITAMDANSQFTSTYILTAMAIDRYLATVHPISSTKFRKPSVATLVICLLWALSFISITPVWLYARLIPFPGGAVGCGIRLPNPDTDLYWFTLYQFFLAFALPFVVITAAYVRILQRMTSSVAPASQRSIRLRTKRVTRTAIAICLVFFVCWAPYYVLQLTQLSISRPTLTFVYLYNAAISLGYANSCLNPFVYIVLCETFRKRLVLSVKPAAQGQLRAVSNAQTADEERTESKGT", "test": "Fluorescence-based counterscreen for antagonists of the G-protein coupled receptor 7 (GPR7): cell-based high throughput dose response assay to identify antagonists of the melanin-concentrating hormone receptor 1 (MCHR1).", "assay_type": "functional"}, "[7]": {"target": "Neuropeptides B/W receptor type 1 (Homo sapiens, UniProt P48145)", "sequence (P48145 whole entry)": "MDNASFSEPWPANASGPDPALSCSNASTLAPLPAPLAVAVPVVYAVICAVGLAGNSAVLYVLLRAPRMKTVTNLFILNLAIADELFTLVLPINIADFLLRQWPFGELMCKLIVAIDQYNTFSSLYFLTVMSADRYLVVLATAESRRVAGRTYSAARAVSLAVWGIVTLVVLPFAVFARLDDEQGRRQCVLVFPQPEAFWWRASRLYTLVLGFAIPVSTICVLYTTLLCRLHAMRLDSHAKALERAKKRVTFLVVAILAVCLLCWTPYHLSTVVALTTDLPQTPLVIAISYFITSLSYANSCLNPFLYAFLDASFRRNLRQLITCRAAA", "test": "Fluorescence-based dose response cell-based high throughput screening assay to identify antagonists of the G-protein coupled receptor 7 (GPR7). [Related pubchem assays: 1952 (Screening assay (GPR7 antagonists).), 1880 (Summary AID.)]", "assay_type": "functional"}, "[8]": {"test_system": "INS1", "test": "beta cell apoptosis inhibitors, cytokine rescue, dose response, luminescence, retest (AID 449756);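 also: cell death triggered by IL-1 beta plus TNF-alpha plus IFN-gamma mixture; protective hits raise ATP signal compared with cytokine alone wells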", "assay_type": "functional, cell-based", "conditions": "Rattus norvegicus, INS1"}, "[9]": {"target": "T3, Neuropeptide Y receptor type 2 (Homo sapiens, UniProt P49146)", "T3 sequence (P49146 whole entry)": "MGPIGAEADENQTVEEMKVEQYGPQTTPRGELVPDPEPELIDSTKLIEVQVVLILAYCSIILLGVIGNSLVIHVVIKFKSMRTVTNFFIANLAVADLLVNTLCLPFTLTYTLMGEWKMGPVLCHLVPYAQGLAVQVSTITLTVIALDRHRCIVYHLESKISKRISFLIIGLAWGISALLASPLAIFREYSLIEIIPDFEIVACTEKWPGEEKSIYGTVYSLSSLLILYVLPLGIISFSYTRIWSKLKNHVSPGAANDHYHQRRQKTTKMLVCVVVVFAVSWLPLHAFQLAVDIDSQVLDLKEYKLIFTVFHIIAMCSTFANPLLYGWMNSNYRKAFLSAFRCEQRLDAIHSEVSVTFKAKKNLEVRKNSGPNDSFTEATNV", "test": "NPY-Y2 antagonist potency, selectivity check, dose response, counter-screen for NPY-Y1 antagonist project, cell-based (AID 1278)", "assay_type": "functional"}},
  "note": "The source made the active and inactive calls.",
  "data": [
    {"smiles": "COc1ccc(C(=O)C[N+]2(C)CCOCC2)cc1", "values": [
      {"measurement": "IC50", "setting": "[1]", "value": "> 100 µM (inactive)"},
      {"measurement": "IC50", "setting": "[2]", "value": "4.41 µM (active)"},
      {"measurement": "IC50", "setting": "[3]", "value": "> 50 µM (not active)"}
    ]},
    {"smiles": "CC(C)C[C@@H](CC(=O)N[C@@H](CCC(=O)O)CC(=O)O)NC(=O)[C@@H]1CCCC[C@H]1NC(=O)C[C@H](CCCN)NC(=O)C[C@H](CO)NC(=O)[C@@H]1CNCC[C@H]1N", "values": [
      {"measurement": "AC50", "setting": "[4]", "value": "31.6 µM (inconclusive)"}
    ]},
    {"smiles": "Cc1ccc(C(=O)C[n+]2cc(-c3ccccc3)n3c2CCCCC3)cc1", "values": [
      {"measurement": "IC50", "setting": "[5]", "value": "6.06 µM (active)"},
      {"measurement": "IC50", "setting": "[6]", "value": "> 14.6 µM (not active)"},
      {"measurement": "IC50", "setting": "[7]", "value": "31.2 µM (not active)"},
      {"measurement": "AC50", "setting": "[8]", "value": "4.71 µM (active)"},
      {"measurement": "IC50", "setting": "[9]", "value": "8.01 µM (active)"}
    ]}
  ]
}
